# Results as given in US20220380338A1, “CYCLOALKYL 3-OXOPIPERAZINE CARBOXAMIDES AND CYCLOHETEROALKYL 3-OXOPIPERAZINE CARBOXAMIDES AS NAV1.8 INHIBITORS” (Merck Sharp & Dohme LLC, priority 2021, published 2022).
# Target: T1, human NaV1.8 (Homo sapiens, UniProt Q9Y5Y9)
# T1 construct: expressed in transfected cells
# Test: Nav1.8 Qube® Assay (automated 384-well patch-clamp, inhibition of sodium current)
# Type: cell-based
# Conditions: human NaV1.8 channels stably expressed in HEK 293 cells, room temperature
# Outline: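 Whole-cell voltage clamp at room temperature in HEK293 cells stably expressing NaV1.8; from −90 mV hold, 10 s 1 Hz train of 20 ms pulses to 10 mV with 980 ms repolarization to −67 mV. Peak currents of 1st and 10th pulses give resting and inactivated-state IC50s, Hill fit.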
# T1 sequence (Q9Y5Y9 whole entry): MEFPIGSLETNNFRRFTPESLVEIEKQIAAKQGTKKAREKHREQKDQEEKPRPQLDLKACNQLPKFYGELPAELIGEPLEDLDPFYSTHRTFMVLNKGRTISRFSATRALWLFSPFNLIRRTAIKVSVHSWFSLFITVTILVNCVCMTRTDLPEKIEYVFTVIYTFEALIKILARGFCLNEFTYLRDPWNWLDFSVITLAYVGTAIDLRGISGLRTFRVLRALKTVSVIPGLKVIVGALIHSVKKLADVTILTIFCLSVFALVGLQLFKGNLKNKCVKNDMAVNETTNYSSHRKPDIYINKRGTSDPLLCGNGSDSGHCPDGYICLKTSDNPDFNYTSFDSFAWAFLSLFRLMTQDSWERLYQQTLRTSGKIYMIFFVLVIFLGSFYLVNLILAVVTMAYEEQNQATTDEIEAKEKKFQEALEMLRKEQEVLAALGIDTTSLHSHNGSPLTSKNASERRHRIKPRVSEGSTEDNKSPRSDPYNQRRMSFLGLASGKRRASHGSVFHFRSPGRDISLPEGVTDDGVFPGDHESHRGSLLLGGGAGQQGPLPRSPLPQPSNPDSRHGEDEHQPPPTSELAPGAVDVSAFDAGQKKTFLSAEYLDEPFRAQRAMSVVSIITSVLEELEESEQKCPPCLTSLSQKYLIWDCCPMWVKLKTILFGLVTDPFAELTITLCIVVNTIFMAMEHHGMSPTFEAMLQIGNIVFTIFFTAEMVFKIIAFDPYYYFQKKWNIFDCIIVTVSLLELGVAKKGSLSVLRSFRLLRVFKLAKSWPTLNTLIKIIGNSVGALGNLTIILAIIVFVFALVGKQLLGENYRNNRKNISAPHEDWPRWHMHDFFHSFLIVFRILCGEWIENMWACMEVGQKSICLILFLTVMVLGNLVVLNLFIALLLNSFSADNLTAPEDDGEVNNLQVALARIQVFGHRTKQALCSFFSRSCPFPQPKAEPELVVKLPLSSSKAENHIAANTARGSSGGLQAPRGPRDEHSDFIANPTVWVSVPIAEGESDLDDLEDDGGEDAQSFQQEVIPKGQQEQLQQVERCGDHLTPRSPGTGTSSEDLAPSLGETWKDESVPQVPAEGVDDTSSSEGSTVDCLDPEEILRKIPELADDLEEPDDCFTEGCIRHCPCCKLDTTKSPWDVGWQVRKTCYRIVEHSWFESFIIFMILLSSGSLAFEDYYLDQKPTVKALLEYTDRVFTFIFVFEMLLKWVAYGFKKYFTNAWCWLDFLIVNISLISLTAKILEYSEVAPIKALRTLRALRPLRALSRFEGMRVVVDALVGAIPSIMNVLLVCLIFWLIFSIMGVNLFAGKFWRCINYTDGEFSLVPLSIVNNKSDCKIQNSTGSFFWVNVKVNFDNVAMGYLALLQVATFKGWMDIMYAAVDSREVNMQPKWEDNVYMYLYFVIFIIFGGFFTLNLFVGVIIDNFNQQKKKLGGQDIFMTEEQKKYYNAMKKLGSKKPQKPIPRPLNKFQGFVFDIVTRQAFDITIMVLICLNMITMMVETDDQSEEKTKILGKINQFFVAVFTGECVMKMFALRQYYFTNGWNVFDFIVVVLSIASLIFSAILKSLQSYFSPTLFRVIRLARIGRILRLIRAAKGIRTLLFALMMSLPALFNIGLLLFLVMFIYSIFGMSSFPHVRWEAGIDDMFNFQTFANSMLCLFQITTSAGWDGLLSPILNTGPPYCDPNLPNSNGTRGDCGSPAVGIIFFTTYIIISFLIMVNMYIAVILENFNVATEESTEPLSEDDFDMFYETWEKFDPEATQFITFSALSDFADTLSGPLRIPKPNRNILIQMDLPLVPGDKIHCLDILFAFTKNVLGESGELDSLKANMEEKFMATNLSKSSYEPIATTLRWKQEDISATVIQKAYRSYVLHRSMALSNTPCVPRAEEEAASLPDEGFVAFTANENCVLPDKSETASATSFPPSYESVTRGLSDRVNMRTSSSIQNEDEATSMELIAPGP
row,IC50,Compound
1,389 nM,"C[C@@H]1C(=O)NCCN1C(=O)NC(c1ccc(OC(F)(F)F)cc1F)[C@H]1C[C@H](C(F)(F)F)C1 (single isomer, unassigned) [Example 50A, ((2R)-N-((R or S)-(2-fluoro-4-(trifluoro-methoxy)phenyl)(trans-3-(trifluoromethyl)-cyclobutyl)methyl)-2-methyl-3-oxopiperazine-1-carboxamide]"
2,9.01 nM,"C[C@@H]1C(=O)NCCN1C(=O)NC(c1ccc(OC(F)(F)F)cc1F)[C@H]1C[C@H](C(F)(F)F)C1 (single isomer, unassigned) [Example 50B, (2R)-N-((S or R)-(2-fluoro-4-(trifluoro-methoxy)phenyl)(trans-3-(trifluoro-methyl)-cyclobutyl)-methyl)-2-methyl-3-oxopiperazine-1-carboxamide]"
3,117 nM,"C[C@@H]1C(=O)NCCN1C(=O)NC(c1ccc(F)c(C(F)(F)F)c1)[C@H]1C[C@H](C(F)(F)F)C1 (single isomer, unassigned) [Example 51A, (2R)-N-((R or S)-(4-fluoro-3-(trifluoro-methyl)phenyl)(trans-3-(trifluoro-methyl)-cyclo-butyl)methyl)-2-methyl-3-oxo-piperazine-1-carboxamide]"
4,3.03 nM,"C[C@@H]1C(=O)NCCN1C(=O)NC(c1ccc(F)c(C(F)(F)F)c1)[C@H]1C[C@H](C(F)(F)F)C1 (single isomer, unassigned) [Example 51B, (2R)-N-((S or R)-(4-fluoro-3-(trifluoro-methyl)phenyl)(trans-3-(trifluoro-methyl)-cyclobutyl)methyl)-2-methyl-3-oxopiperazine-1-carboxamide]"
5,320 nM,"O=C1CN(C(=O)NC(c2ccc(F)c(C(F)(F)F)c2)[C@H]2C[C@H](C(F)(F)F)C2)CCN1 (single isomer, unassigned) [Example 52A, N-((R or S)-(4-fluoro-3-(trifluoromethyl)phenyl) (trans-3-(trifluoro-methyl)cyclobutyl)-methyl)-3-oxo-piperazine-1-carboxamide]"
6,11.8 nM,"O=C1CN(C(=O)NC(c2ccc(F)c(C(F)(F)F)c2)[C@H]2C[C@H](C(F)(F)F)C2)CCN1 (single isomer, unassigned) [Example 52B, N-((S or R)-(4-fluoro-3-(trifluoromethyl)phenyl) (trans-3-(trifluoro-methyl)cyclobutyl)-methyl)-3-oxo-piperazine-1-carboxamide]"
7,538 nM,"C[C@@H]1C(=O)NCCN1C(=O)NC(c1cccc(Cl)c1F)[C@H]1C[C@H](C(F)(F)F)C1 (single isomer, unassigned) [Example 53A, (2R)-N-((R or S)-(3-chloro-2-fluorophenyl)-(trans-3-(trifluoro-methyl)cyclobutyl)meth-yl)-2-methyl-3-oxo-piperazine-1-carboxamide]"
8,9.06 nM,"C[C@@H]1C(=O)NCCN1C(=O)NC(c1cccc(Cl)c1F)[C@H]1C[C@H](C(F)(F)F)C1 (single isomer, unassigned) [Example 53B, (2R)-N-((S or R)-(3-chloro-2-fluorophenyl)-(trans-3-(trifluoro-methyl)cyclobutyl)meth-yl)-2-methyl-3-oxo-piperazine-1-carboxamide]"
9,1.7 nM,"C[C@@H]1C(=O)NCCN1C(=O)NC(c1ccc(OC(F)(F)F)c(Cl)c1)C1CC(C(F)(F)F)C1 (single isomer, unassigned) [Example 54A, (2R)-N-((R or S)-(3-chloro-4-(trifluoro-methoxy)phenyl)(3-(trifluoromethyl)cyclo-butyl)methyl)-2-methyl-3-oxopiperazine-1-carboxamide]"
10,4.18 nM,"C[C@@H]1C(=O)NCCN1C(=O)NC(c1ccc(OC(F)(F)F)c(Cl)c1)C1CC(C(F)(F)F)C1 (single isomer, unassigned) [Example 54B, (2R)-N-((S or R)-(3-chloro-4-(trifluoro-methoxy)phenyl)(3-(trifluoromethyl)cyclo-butyl)methyl)-2-methyl-3-oxopiperazine-1-carboxamide]"
